Like-named read-outs stand apart in the source and are kept apart here.
What was measured:
[1] = molecular target: T1, human V1a receptor (Homo sapiens, UniProt P37288); test: Cellular in vitro assay for determining vasopressin receptor activity, V1a receptor cell line (CHO, aequorin luminescence); assay type: cell-based; conditions: for IC50: CHO cell line transfected with human V1a receptor, [Arg]-vasopressin at EC50 concentration, read-out: IC50 hV1a; for ratio IC50 hV2/hV1a: selectivity ratio IC50 hV2 / IC50 hV1a
T1 construct: expressed in transfected cells; host or cells: CHO K1 (ATCC), also stably transfected with a modified aequorin
T1 sequence (P37288 whole entry): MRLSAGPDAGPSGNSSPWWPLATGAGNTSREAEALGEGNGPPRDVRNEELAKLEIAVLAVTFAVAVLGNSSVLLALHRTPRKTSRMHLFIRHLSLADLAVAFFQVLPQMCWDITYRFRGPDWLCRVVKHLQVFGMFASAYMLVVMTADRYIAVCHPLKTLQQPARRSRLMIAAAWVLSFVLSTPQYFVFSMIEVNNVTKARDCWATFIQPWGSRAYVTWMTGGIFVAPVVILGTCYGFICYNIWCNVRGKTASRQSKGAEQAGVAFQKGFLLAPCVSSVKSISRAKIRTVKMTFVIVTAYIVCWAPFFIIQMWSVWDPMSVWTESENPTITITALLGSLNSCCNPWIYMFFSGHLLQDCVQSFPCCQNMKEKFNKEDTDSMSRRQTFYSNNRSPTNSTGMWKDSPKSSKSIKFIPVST
In short: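 Cells were plated the day before in medium containing 5 μg/ml coelenterazine and kept at 37° C. Compounds at various concentrations were then added for 10 minutes. Next, [Arg]-vasopressin at EC50 was applied and light output recorded at once, yielding IC50.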

[2] = molecular target: T2, human V2 receptor (Homo sapiens, UniProt P30518); test: Cellular in vitro assay for determining vasopressin receptor activity, V2 receptor cell line (CHO, CRE-luciferase); assay type: cell-based; conditions: CHO cell line transfected with human V2 receptor, [Arg8]-vasopressin at EC50 concentration, read-out: IC50 hV2
T2 construct: expressed in transfected cells; host or cells: CHO K1 (ATCC) expressing firefly luciferase under a CRE-responsive promoter
T2 sequence (P30518 whole entry): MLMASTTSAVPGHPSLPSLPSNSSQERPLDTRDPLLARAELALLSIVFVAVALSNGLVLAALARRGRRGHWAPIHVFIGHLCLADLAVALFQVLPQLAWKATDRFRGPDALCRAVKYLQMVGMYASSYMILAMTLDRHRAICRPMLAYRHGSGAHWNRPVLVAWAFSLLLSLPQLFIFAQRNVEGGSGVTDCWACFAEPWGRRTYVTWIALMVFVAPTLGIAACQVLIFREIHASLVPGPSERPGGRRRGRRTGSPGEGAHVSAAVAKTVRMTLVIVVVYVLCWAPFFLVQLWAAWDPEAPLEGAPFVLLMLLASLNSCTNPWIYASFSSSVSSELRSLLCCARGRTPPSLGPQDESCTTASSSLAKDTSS

Compound | IC50 [1] | ratio IC50 hV2/hV1a [1] | IC50 [2] | IC50 ([2]; 3 hours)
O=C(c1ncccc1-n1cnc(Cn2nc(-c3ccc(Cl)cc3)n(C[C@@H](O)C(F)(F)F)c2=O)n1)N1CCC(C(F)(F)F)C1 (mixture of isomers) [Example 480, 5-(4-Chlorophenyl)-4-[(2R)-3,3,3-trifluoro-2-hydroxypropyl]-2-{[1-(2-{[3-(trifluoromethyl)pyrrolidin-1-yl]carbonyl}pyridin-3-yl)-1H-1,2,4-triazol-3-yl]methyl}-2,4-dihydro-3H-1,2,4-triazol-3-one] | 460 nM | 69.6 | 32000 nM | –
NC(CNC(=O)c1ncccc1-n1cnc(Cn2nc(-c3ccc(Cl)cc3)n(C[C@@H](O)C(F)(F)F)c2=O)n1)C(F)(F)F (mixture of isomers) [Example 484, N-[2-Amino-3,3,3-trifluoropropyl]-3-[3-({3-(4-chlorophenyl)-5-oxo-4-[(2R)-3,3,3-trifluoro-2-hydroxypropyl]-4,5-dihydro-1H-1,2,4-triazol-1-yl}methyl)-1H-1,2,4-triazol-1-yl]pyridine-2-carboxamide] | 210 nM | 44.8 | 9400 nM | –
O=C(NCC(O)C(F)(F)F)c1ncccc1-n1cnc(Cn2nc(-c3ccc(Cl)cc3)n(C[C@@H](O)C(F)(F)F)c2=O)n1 (mixture of isomers) [Example 485, 3-[3-({3-(4-Chlorophenyl)-5-oxo-4-[(2R)-3,3,3-trifluoro-2-hydroxypropyl]-4,5-dihydro-1H-1,2,4-triazol-1-yl}methyl)-1H-1,2,4-triazol-1-yl]-N-[3,3,3-trifluoro-2-hydroxypropyl]pyridine-2-carboxamide] | 230 nM | 21.7 | 5000 nM | –
COCC1CCCN1C(=O)c1ccncc1-n1cnc(Cn2nc(-c3ccc(Cl)cc3)n(C[C@H](O)C(F)(F)F)c2=O)n1 (mixture of isomers) [Example 493, 5-(4-Chlorophenyl)-2-{[1-(4-{[2-(methoxymethyl)pyrrolidin-1-yl]carbonyl}pyridin-3-yl)-1H-1,2,4-triazol-3-yl]methyl}-4-[(2S)-3,3,3-trifluoro-2-hydroxypropyl]-2,4-dihydro-3H-1,2,4-triazol-3-one] | 13.5 nM | 540.7 | 7300 nM | –
O=C(NC1CC1F)c1cccnc1-n1cnc(Cn2nc(-c3ccc(Cl)cc3)n(C[C@H](O)C(F)(F)F)c2=O)n1 (mixture of isomers) [Example 503] | 5.55 nM | 38.7 | 215 nM | –
COCC1CCCN1C(=O)c1ccncc1-n1nc(Cn2nc(-c3ccc(Cl)cc3)n(C[C@H](O)C(F)(F)F)c2=O)nc1C(=O)N1CCNC(=O)C1 (mixture of isomers) [Example 516, 4-{[3-({3-(4-Chlorophenyl)-5-oxo-4-[(2S)-3,3,3-trifluoro-2-hydroxypropyl]-4,5-dihydro-1H-1,2,4-triazol-1-yl}methyl)-1-(4-{[2-(methoxymethyl)pyrrolidin-1-yl]carbonyl}pyridin-3-yl)-1H-1,2,4-triazol-5-yl]carbonyl}piperazin-2-one] | 5700 nM | 9.6 | 55000 nM | –
COCC1CCCN1C(=O)c1ccncc1-n1nc(Cn2nc(-c3ccc(Cl)cc3)n(C[C@H](O)C(F)(F)F)c2=O)nc1C(=O)N1CCS(=O)(=O)CC1 (mixture of isomers) [Example 522, 5-(4-Chlorophenyl)-2-({5-[(1,1-dioxidothiomorpholin-4-yl)carbonyl]-1-(4-{[2-(methoxymethyl)pyrrolidin-1-yl]carbonyl}pyridin-3-yl)-1H-1,2,4-triazol-3-yl}methyl)-4-[(2S)-3,3,3-trifluoro-2-hydroxypropyl]-2,4-dihydro-3H-1,2,4-triazol-3-one] | 3000 nM | 5.0 | 15000 nM | –
COCC1CCCN1C(=O)c1cccnc1-n1nc(Cn2nc(-c3ccc(Cl)cc3)n(C[C@H](O)C(F)(F)F)c2=O)nc1C(=O)N1CCNC(=O)C1 (mixture of isomers) [Example 526, 4-{[3-({3-(4-Chlorophenyl)-5-oxo-4-[(2S)-3,3,3-trifluoro-2-hydroxypropyl]-4,5-dihydro-1H-1,2,4-triazol-1-yl}methyl)-1-(3-{[2-(methoxymethyl)pyrrolidin-1-yl]carbonyl}pyridin-2-yl)-1H-1,2,4-triazol-5-yl]carbonyl}piperazin-2-one] | 8650 nM | 2.3 | 20000 nM | –
COCC1CCCN1C(=O)c1cccnc1-n1nc(Cn2nc(-c3ccc(Cl)cc3)n(C[C@H](O)C(F)(F)F)c2=O)nc1C(=O)N1CCS(=O)(=O)CC1 (mixture of isomers) [Example 532, 5-(4-Chlorophenyl)-2-({5-[(1,1-dioxidothiomorpholin-4-yl)carbonyl]-1-(3-{[2-(methoxymethyl)pyrrolidin-1-yl]carbonyl}pyridin-2-yl)-1H-1,2,4-triazol-3-yl}methyl)-4-[(2S)-3,3,3-trifluoro-2-hydroxypropyl]-2,4-dihydro-3H-1,2,4-triazol-3-one] | 275 nM | 17.6 | 4850 nM | –
COCC1CCCN1C(=O)c1ccncc1-n1nc(Cn2nc(-c3ccc(Cl)cc3)n(C[C@H](O)C(F)(F)F)c2=O)nc1C(=O)NCC(C)(C)N (mixture of isomers) [Example 536, N-(2-amino-2-methylpropyl)-3-({3-(4-chlorophenyl)-5-oxo-4-[(2S)-3,3,3-trifluoro-2-hydroxypropyl]-4,5-dihydro-1H-1,2,4-triazol-1-yl}methyl)-1-(4-{[2-(methoxymethyl)pyrrolidin-1-yl]carbonyl}pyridin-3-yl)-1H-1,2,4-triazol-5-carboxamide] | 280 nM | 297.6 | 83300 nM | –
O=C(Nc1cccnc1-n1cnc(Cn2nc(-c3ccc(Cl)cc3)n(C[C@H](O)C(F)(F)F)c2=O)n1)[C@@H]1C[C@@H]1C(F)(F)F (racemic) [Example 45, N-{2-[3-({3-(4-Chlorophenyl)-5-oxo-4-[(2S)-3,3,3-trifluoro-2-hydroxypropyl]-4,5-dihydro-1H-1,2,4-triazol-1-yl}methyl)-1H-1,2,4-triazol-1-yl]pyridin-3-yl}-2-(trifluoromethyl)cyclopropanecarboxamide] | 33 nM | 21.0 | – | 693 nM
O=C(Nc1ncccc1-n1cnc(Cn2nc(-c3ccc(Cl)cc3)n(C[C@H](O)C(F)(F)F)c2=O)n1)[C@@H]1C[C@@H]1F (racemic) [Example 76, N-{3-[3-({3-(4-Chlorophenyl)-5-oxo-4-[(2S)-3,3,3-trifluoro-2-hydroxypropyl]-4,5-dihydro-1H-1,2,4-triazol-1-yl}methyl)-1H-1,2,4-triazol-1-yl]pyridin-2-yl}-2-fluorocyclopropanecarboxamide] | 6.45 nM | 362.4 | – | 2340 nM
O=C(Nc1ncccc1-n1cnc(Cn2nc(-c3ccc(Cl)cc3)n(C[C@H](O)C(F)(F)F)c2=O)n1)[C@@H]1C[C@@H]1C(F)(F)F (racemic) [Example 79, N-{3-[3-({3-(4-Chlorophenyl)-5-oxo-4-[(2S)-3,3,3-trifluoro-2-hydroxypropyl]-4,5-dihydro-1H-1,2,4-triazol-1-yl}methyl)-1H-1,2,4-triazol-1-yl]pyridin-2-yl}-2-(trifluoromethyl)cyclopropanecarboxamide] | 102 nM | 102.9 | – | 10500 nM
O=C(Nc1ncccc1-n1cnc(Cn2nc(-c3ccc(Cl)cc3)n(C[C@H](O)C(F)(F)F)c2=O)n1)[C@H]1C[C@@H]1F (racemic) [Example 84, N-{3-[3-({3-(4-Chlorophenyl)-5-oxo-4-[(2S)-3,3,3-trifluoro-2-hydroxypropyl]-4,5-dihydro-1H-1,2,4-triazol-1-yl}methyl)-1H-1,2,4-triazol-1-yl]pyridin-2-yl}-2-fluorocyclopropanecarboxamide] | 9.95 nM | 321.6 | – | 3200 nM
O=C(N[C@H]1C[C@H]1F)c1cccc(Cl)c1-n1cnc(Cn2nc(-c3ccc(Cl)cc3)n(C[C@H](O)C(F)(F)F)c2=O)n1 (racemic) [Example 389, 3-Chloro-2-[3-({3-(4-chlorophenyl)-5-oxo-4-[(2S)-3,3,3-trifluoro-2-hydroxypropyl]-4,5-dihydro-1H-1,2,4-triazol-1-yl}methyl)-1H-1,2,4-triazol-1-yl]-N-[2-fluorocyclopropyl]benzamide] | 2.65 nM | 315.1 | – | 835 nM
O=C(N[C@H]1C[C@H]1F)c1cccc(Cl)c1-n1cnc(Cn2nc(-c3ccc(Cl)cc3)n(C[C@@H](O)C(F)(F)F)c2=O)n1 (racemic) [Example 397, 3-Chloro-2-[3-({3-(4-chlorophenyl)-5-oxo-4-[(2R)-3,3,3-trifluoro-2-hydroxypropyl]-4,5-dihydro-1H-1,2,4-triazol-1-yl}methyl)-1H-1,2,4-triazol-1-yl]-N-[2-fluorocyclopropyl]benzamide] | 72 nM | 96.5 | – | 6950 nM
O=C(N[C@@H]1C[C@@H]1F)c1cccc(C(F)(F)F)c1-n1cnc(Cn2nc(-c3ccc(Cl)cc3)n(C[C@H](O)C(F)(F)F)c2=O)n1 (racemic) [Example 413, 2-[3-({3-(4-Chlorophenyl)-5-oxo-4-[(2S)-3,3,3-trifluoro-2-hydroxypropyl]-4,5-dihydro-1H-1,2,4-triazol-1-yl}methyl)-1H-1,2,4-triazol-1-yl]-N-[2-fluorocyclopropyl]-3-(trifluoromethyl)benzamide] | 34.5 nM | 59.4 | 2050 nM | –
